# Test results reported in US20260158102A1, “CYCLIC PEPTIDE DERIVATIVE COMPOSITION FOR TREATING OR PREVENTING NEUROPATHIC PAIN AND/OR INFLAMMATORY PAIN” (DKS Co. Ltd., priority 2022, published 2026).
# How the values were obtained:
# [1] = Observation of general condition in rat STZ-induced diabetes model; type: in vivo; conditions: 20 mg/kg oral, number of animals, 10 per group
# Procedure: (§1) Compound 9 (50 mg/mL) was diluted with water for injection to obtain a 1 mg/mL administration specimen. For the specimens to be administered at 0.1 mg/mL and 0.01 mg/mL, the specimen to be administered at 1 mg/mL was diluted stepwise with water for injection. Each administration specimen was divided into PP disposable tubes every day and stored in a storehouse (freezer: MDF-MU339H-PJ, PHC Corporation) under the condition of freezing (−30° C. to −20° C., measured value: −26.4 to −24.5° C.). Preparation was performed on the day before the start of administration.
# (§2) Water for injection was added to and dissolved in Pregabalin taken out from the capsule to obtain 2 mg/mL. It was prepared before use.
# (§3) • Animal species: rat (SPF) • Strain: Crl: CD (SD) • Date of animal acquisition, gender, age in weeks, number of animals acquired, and weight range after 1 day of acquisition • First and second courses: Apr. 6, 2022, male, 7 weeks old, 35 animals, 217 to 237 g • Third and fourth courses: Apr. 13, 2022, male, 7 weeks old, 35 animals, 216 to 235 g • Source: […].
# (§4) • Dose volume: calculated at 2 mL/kg based on the body weight on the day of administration. • Number of times of administration: once • Day of administration: 7 days before the day of starting administration of the test substance.
# (§5) • Dose volume: calculated at 1 mL/kg based on the body weight on the day of administration. • Number of times of administration: 9 times • Interval of administration: once every 3 days (evaluation was performed on the day after administration) • Day of starting administration: day 8 of STZ administration (day of STZ administration is counted as day 1).
# (§6) • Dose volume: calculated at 10 mL/kg based on the body weight on the day of administration. • Number of times of administration: Administration was performed once on the day of evaluation of neuropathic pain, twice in total, and on the other days of administration, a vehicle for a control substance (water for injection) was orally administered.
# • Observation of general condition • Observation was performed once a day.
# [2] = Measurement of blood glucose level in rat STZ-induced diabetes model; type: in vivo; conditions: mean ± SE
# Procedure: as §1, §2, §3, §4, §5, §6
# On days 7 and 35 of STZ administration, about 50 μL of blood was collected from the tail vein using a winged injection needle (Terumo Corporation) equipped with a heparinized capillary (DRUMMOND […]).
# The blood obtained above was centrifuged [centrifugal conditions: 4° C., 3,000 rpm (×2,150 g), 15 min] with a centrifuge (CF 9RX, Hitachi Koki Co., Ltd.) to obtain plasma. Blood glucose levels of a part of plasma obtained by blood collection on day 7 and day 35 after STZ administration were measured by hexokinase G-6 PDH method (L-type Wako Glu2, FUJIFILM Wako Pure Chemical Corporation) using a biochemical automatic analyzer (AU480, Beckman Coulter, Inc.). […] The plasma after the measurement was discarded.
# The mean and standard error of each group were calculated for the 50% withdrawal threshold, body weight, and blood glucose level.
# The body weight was an integer.
# No significant difference test of body weight and blood glucose levels was performed.
smiles,measurement,setting,value
"CC(C)C[C@H](CN)CC(=O)O [Pregabalin, reference compound]",general condition,[1]; day 1 of STZ administration,10
same,general condition,[1]; day 2 of STZ administration,10
same,general condition,[1]; day 3 of STZ administration,10
same,general condition,[1]; day 4 of STZ administration,10
same,general condition,[1]; day 5 of STZ administration,10
same,general condition,[1]; day 6 of STZ administration,10
same,general condition,[1]; day 7 of STZ administration,10
same,general condition,[1]; day 8 of STZ administration,10
same,general condition,[1]; day 9 of STZ administration,10
same,general condition,[1]; day 10 of STZ administration,10
same,general condition,[1]; day 11 of STZ administration,10
same,general condition,[1]; day 12 of STZ administration,10
same,general condition,[1]; day 13 of STZ administration,10
same,general condition,[1]; day 14 of STZ administration,10
same,general condition,[1]; day 15 of STZ administration,10
same,general condition,[1]; day 16 of STZ administration,10
same,general condition,[1]; day 17 of STZ administration,10
same,general condition,[1]; day 18 of STZ administration,10
same,general condition,[1]; day 19 of STZ administration,10
same,general condition,[1]; day 20 of STZ administration,10
same,general condition,[1]; day 21 of STZ administration,10
same,general condition,[1]; day 22 of STZ administration,10
same,general condition,[1]; day 23 of STZ administration,10
same,general condition,[1]; day 24 of STZ administration,10
same,general condition,[1]; day 25 of STZ administration,10
same,general condition,[1]; day 26 of STZ administration,10
same,general condition,[1]; day 27 of STZ administration,10
same,general condition,[1]; day 28 of STZ administration,10
same,general condition,[1]; day 29 of STZ administration,10
same,general condition,[1]; day 30 of STZ administration,10
same,general condition,[1]; day 31 of STZ administration,10
same,general condition,[1]; day 32 of STZ administration,10
same,general condition,[1]; day 33 of STZ administration,10
same,general condition,[1]; day 34 of STZ administration,10
same,general condition,[1]; day 35 of STZ administration,10
same,"Blood glucose level, Glu","[2]; 20 mg/kg oral group, day 7 of STZ administration (before start of dosing)",575.8 ± 20.0 mg/dL
same,"Blood glucose level, Glu","[2]; 20 mg/kg oral, day 35 of STZ administration",567.4 ± 22.5 mg/dL
